The text below walks through data of patent EP3623369A1, “NOVEL MORPHOLINYL AMINE COMPOUNDS FOR THE TREATMENT OF AUTOIMMUNE DISEASE” (F. Hoffmann-La Roche AG, priority 2018, dated 2020).

This test addresses T1, hTLR9 (Homo sapiens, UniProt Q9NR96).
T1 sequence (Q9NR96 26-1032): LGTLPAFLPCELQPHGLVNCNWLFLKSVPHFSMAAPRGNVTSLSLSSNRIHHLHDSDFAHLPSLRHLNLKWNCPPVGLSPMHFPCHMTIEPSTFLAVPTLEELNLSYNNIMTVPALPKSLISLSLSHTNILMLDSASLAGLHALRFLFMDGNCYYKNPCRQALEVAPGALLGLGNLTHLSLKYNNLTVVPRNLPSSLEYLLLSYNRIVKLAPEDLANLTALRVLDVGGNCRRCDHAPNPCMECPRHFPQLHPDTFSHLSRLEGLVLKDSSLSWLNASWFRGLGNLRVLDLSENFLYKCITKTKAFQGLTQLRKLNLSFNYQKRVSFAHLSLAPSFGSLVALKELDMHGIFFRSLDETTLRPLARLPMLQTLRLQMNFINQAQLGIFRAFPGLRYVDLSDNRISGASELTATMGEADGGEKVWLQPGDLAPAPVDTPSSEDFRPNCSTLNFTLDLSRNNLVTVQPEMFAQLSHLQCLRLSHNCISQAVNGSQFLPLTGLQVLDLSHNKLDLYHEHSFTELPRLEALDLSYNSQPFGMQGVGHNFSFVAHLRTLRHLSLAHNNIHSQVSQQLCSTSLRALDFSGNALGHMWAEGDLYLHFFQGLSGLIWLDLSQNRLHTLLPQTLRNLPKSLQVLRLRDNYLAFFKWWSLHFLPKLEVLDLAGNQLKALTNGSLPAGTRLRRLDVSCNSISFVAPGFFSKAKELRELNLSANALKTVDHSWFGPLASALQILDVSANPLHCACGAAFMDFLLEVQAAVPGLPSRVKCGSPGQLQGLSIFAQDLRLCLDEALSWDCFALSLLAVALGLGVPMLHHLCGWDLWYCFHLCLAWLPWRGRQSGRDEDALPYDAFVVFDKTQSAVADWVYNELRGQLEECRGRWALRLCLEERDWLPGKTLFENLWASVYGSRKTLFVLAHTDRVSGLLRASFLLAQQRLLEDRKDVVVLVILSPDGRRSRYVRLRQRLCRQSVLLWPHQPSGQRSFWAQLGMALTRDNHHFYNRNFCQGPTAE
The test is described as follows: HEK293-Blue-hTLR-9 cells assay (SEAP reporter, ODN2006 stimulation). The format is cell-based. The following applies: HEK293-Blue-hTLR9 cells, ODN2006, 20 hrs; 0.032 is the lowest tested concentration; read-out: HEK/hTLR9 IC50. The method, then:
The following tests were carried out in order to determine the activity of the compounds of formula (I) or (Ia) in HEK293-Blue-hTLR-7/8/9 cells assay.
HEK293-Blue-hTLR-9 cells assay:
A stable HEK293-Blue-hTLR-9 cell line was purchased from InvivoGen (Cat.#: hkb-htlr9, San Diego, California, USA). These cells were originally designed for studying the stimulation of human TLR9 by monitoring the activation of NF-κB. A SEAP (secreted embryonic alkaline phosphatase) reporter gene was placed under the control of the IFN-β minimal promoter fused to five NF-κB and AP-1-binding sites. The SEAP was induced by activating NF-κB and AP-1 via stimulating HEK-Blue hTLR9 cells with TLR9 ligands. Therefore the reporter expression was declined by TLR9 antagonist under the stimulation of a ligand, such as ODN2006 (Cat.#: tlrl-2006-1, Invivogen, San Diego, California, USA), for incubation of 20 hrs. The cell culture supernatant SEAP reporter activity was determined using QUANTI-Blue™ kit (Cat.#: rep-qb1, Invivogen, San Diego, California, USA) at a wavelength of 640 nm, a detection medium that turns purple or blue in the presence of alkaline phosphatase.
HEK293-Blue-hTLR9 cells were incubated at a density of 250,000∼450,000 cells/mL in a volume of 170 µL in a 96-well plate in Dulbecco's Modified Eagle's medium (DMEM) containing 4.5 g/L glucose, 50 U/mL penicillin, […], […], 2 mM L-glutamine, 10% (v/v) heat-inactivated fetal bovine serum with addition of 20 µL test compound in a serial dilution in the presence of final DMSO at 1% and 10 µL of 20uM ODN2006 in above DMEM, perform incubation under 37 °C in a CO2 incubator for 20 hrs. Then 20 µL of the supernatant from each well was incubated with 180 µL Quanti-blue substrate solution at 37 °C for 2 hrs and the absorbance was read at 620∼655 nm using a spectrophotometer. The signalling pathway that TLR9 activation leads to downstream NF-κB activation has been widely accepted, and therefore similar reporter assay was modified for evaluating TLR9 antagonist.
Turning to `C[C@@H]1CN(c2ccc(Cl)c3nccnc23)C[C@H](CN2CCc3cc(N4CCNCC4)ccc3C2)O1` [Example 34, (2R,6S)-4-(8-chloroquinoxalin-5-yl)-2-methyl-6-[(6-piperazin-1-yl-3,4-dihydro-1H-isoquinolin-2-yl)methyl]morpholine], the IC50 was found to be 125 nM.

For the molecule `C[C@@H]1CN(c2ccc(C#N)c3ncccc23)C[C@H](CN2CCc3nc(N4CCNCC4)ccc3C2)O1` [Example 79, 5-[(2R,6S)-2-methyl-6-[(2-piperazin-1-yl-7,8-dihydro-5H-1,6-naphthyridin-6-yl)methyl]morpholin-4-yl]quinoline-8-carbonitrile], the IC50 was under 32 nM. For `C[C@@H]1CN(c2ccc(C#N)c3ncccc23)C[C@H](CN2Cc3ccc(N4CCNCC4CO)cc3C2)O1` (stereo partly drawn) [Example 73, 5-[(2S,6R)-2-[[5-[2-(hydroxymethyl)piperazin-1-yl]isoindolin-2-yl]methyl]-6-methyl-morpholin-4-yl]quinoline-8-carbonitrile], the IC50 came to 60 nM. Consider `C[C@@H]1CN(c2ccc(C#N)c3nccnc23)C[C@H](CN2Cc3ccc(N4CCNC5(CC5)C4)cc3C2)O1` [Example 38, 8-[(2S,6R)-2-[[5-(4,7-diazaspiro[2.5]octan-7-yl)isoindolin-2-yl]methyl]-6-methyl-morpholin-4-yl]quinoxaline-5-carbonitrile], for which the IC50 amounted to 227 nM. `C[C@@H]1CN(c2ccc(C#N)c3ncccc23)C[C@H](CN2Cc3cc(N4CCNCC4)cc(F)c3C2)O1` [Example 59, 5-[(2S,6R)-2-[(4-fluoro-6-piperazin-1-yl-isoindolin-2-yl)methyl]-6-methyl-morpholin-4-yl]quinoline-8-carbonitrile]: the IC50 worked out at 66 nM.

Take `C[C@@H]1CN(c2ccc(C#N)c3ncccc23)C[C@H](CNCc2ccc(N3CCNCC3)cc2)O1` [Example 86, 5-[(2R,6S)-2-methyl-6-[[(4-piperazin-1-ylphenyl)methylamino]methyl]morpholin-4-yl] quinoline-8-carbonitrile]: the IC50 was under 32 nM. Next, `C[C@@H]1CN(c2ccc(C#N)c3ncccc23)C[C@H](CN2Cc3ccc(N4CCN[C@@H](C)C4)cc3C2)O1` [Example 64, 5-[(2R,6S)-2-methyl-6-[[5-[(3S)-3-methylpiperazin-1-yl]isoindolin-2-yl]methyl]morpholin-4-yl]quinoline-8-carbonitrile]: 75 nM; `C[C@@H]1CN(c2ccc(C#N)c3ncccc23)C[C@H](CN2Cc3cc(N4CCN(C)CC4)cc(F)c3C2)O1` [Example 69, 5-[(2S,6R)-2-[[4-fluoro-6-(4-methylpiperazin-1-yl)isoindolin-2-yl]methyl]-6-methyl-morpholin-4-yl]quinoline-8-carbonitrile]: 81 nM. As to `C[C@@H]1CN(c2ccc(C#N)c3ncccc23)C[C@H](CN2Cc3ccc(N4CCNCC4)cc3C(O)C2)O1` (stereo partly drawn) [Example 75, 5-[(2S,6R)-2-[(4-hydroxy-6-piperazin-1-yl-3,4-dihydro-1H-isoquinolin-2-yl)methyl]-6-methyl-morpholin-4-yl]quinoline-8-carbonitrile], the IC50 worked out at 55 nM.

Consider `C[C@@H]1CN(c2ccc(C#N)c3nccnc23)C[C@H](CN2Cc3cc(N4CCNCC4)cnc3C2)O1` [Example 30, 8-[(2R,6S)-2-methyl-6-[(3-piperazin-1-yl-5,7-dihydropyrrolo[3,4-b]pyridin-6-yl)methyl]morpholin-4-yl]quinoxaline-5-carbonitrile], for which the IC50 came to 136 nM. As for `C[C@@H]1CN(c2ccc(C#N)n3nccc23)C[C@H](CN2Cc3ccc(C4CCNC4)cc3C2)O1` (stereo partly drawn) [Example 9, 4-[(2R,6S)-2-methyl-6-[(5-pyrrolidin-3-ylisoindolin-2-yl)methyl]morpholin-4-yl]pyrazolo[1,5-a]pyridine-7-carbonitrile], the IC50 is 64 nM.

For the molecule `C[C@@H]1CN(c2ccc(C#N)c3nccnc23)C[C@H](CN2CCc3cc(N4CCNCC4)ccc3C2)O1` [Example 13, 8-[(2R,6S)-2-methyl-6-[(6-piperazin-1-yl-3,4-dihydro-1H-isoquinolin-2-yl)methyl]morpholin-4-yl]quinoxaline-5-carbonitrile], the IC50 amounted to 54 nM. Next, `C[C@@H]1CN(c2ccc(C#N)n3nccc23)C[C@H](CN2Cc3cc(N4CCNCC4)cnc3C2)O1` [Example 18, 4-[(2R,6S)-2-methyl-6-[(3-piperazin-1-yl-5,7-dihydropyrrolo[3,4-b]pyridin-6-yl)methyl]morpholin-4-yl]pyrazolo[1,5-a]pyridine-7-carbonitrile]: 48 nM; `C[C@@H]1CN(c2ccc(C#N)n3nccc23)C[C@H](CN2CCc3ccc(N4CCNCC4)cc3C2)O1` [Example 11, 4-[(2R,6S)-2-methyl-6-[(7-piperazin-1-yl-3,4-dihydro-1H-isoquinolin-2-yl)methyl]morpholin-4-yl]pyrazolo[1,5-a]pyridine-7-carbonitrile]: 60 nM; `C[C@@H]1CN(c2ccc3c(c2)CN(C[C@H]2CN(c4ccc(C#N)c5ncccc45)C[C@@H](C)O2)C3)C[C@@H](C)N1` (mixture of isomers) [Example 57, Trans-5-[(2R,6S)-2-methyl-6-[[5-[3,5-dimethylpiperazin-1-yl]isoindolin-2-yl]methyl]morpholin-4-yl]quinoline-8-carbonitrile]: 98 nM. With `C[C@@H]1CN(c2ccc(C#N)c3nccnc23)C[C@H](CN2Cc3ccc(N4CCN5CCCCC5C4)cc3C2)O1` (stereo partly drawn) [Example 40, 8-[(2S,6R)-2-[[5-(1,3,4,6,7,8,9,9a-octahydropyrido[1,2-a]pyrazin-2-yl)isoindolin-2-yl]methyl]-6-methyl-morpholin-4-yl]quinoxaline-5-carbonitrile], the IC50 was found to be 122 nM. Regarding `C[C@@H]1CN(c2ccc(C#N)c3ncccc23)C[C@H](CN2Cc3ccc(N4C5CNCC4COC5)cc3C2)O1` [Example 46, 5-[(2R,6S)-2-methyl-6-[[5-(3-oxa-7,9-diazabicyclo[3.3.1]nonan-9-yl)isoindolin-2-yl]methyl]morpholin-4-yl]quinoline-8-carbonitrile], the IC50 was determined as 75 nM. Next, `C[C@@H]1CN(c2ccc(C#N)n3nccc23)C[C@H](CN2CCc3cc(N4CCN(C)CC4)ccc3C2)O1` [Example 15, 4-[(2R,6S)-2-methyl-6-[[6-(4-methylpiperazin-1-yl)-3,4-dihydro-1H-isoquinolin-2-yl]methyl]morpholin-4-yl]pyrazolo[1,5-a]pyridine-7-carbonitrile]: 46 nM; `C[C@@H]1CN(c2ccc(C#N)c3nccnc23)C[C@H](CN2Cc3cnc(N4CCNCC4)cc3C2)O1` [Example 60, 8-[(2R,6S)-2-methyl-6-[(6-piperazin-1-yl-1,3-dihydropyrrolo[3,4-c]pyridin-2-yl)methyl]morpholin-4-yl]quinoxaline-5-carbonitrile]: 46 nM; `C[C@@H]1CN(c2ccc(Cl)c3ncccc23)C[C@H](CN2CCc3cc(N4CCNCC4)ccc3C2)O1` [Example 32, (2R,6S)-4-(8-chloro-5-quinolyl)-2-methyl-6-[(6-piperazin-1-yl-3,4-dihydro-1H-isoquinolin-2-yl)methyl]morpholine]: 123 nM.
